In patent publication US4806532A, “Inhibition of epithelial phosphate transport” (Mayo Foundation for Medical Education and Research, priority 1985, dated 1989):
Entries after “also recorded” stand apart in the source; their conditions may differ.

What was measured:
[1] = target: T1, Na-Pi cotransporter (Rattus norvegicus, UniProt Q06496); test: Na+-gradient-dependent 32Pi uptake by renal cortical BBMV (rapid filtration); format: biochemical
T1 construct: from tissue; host or cells: rat renal cortex, brush border membrane vesicles
T1 sequence (Q06496 1-637): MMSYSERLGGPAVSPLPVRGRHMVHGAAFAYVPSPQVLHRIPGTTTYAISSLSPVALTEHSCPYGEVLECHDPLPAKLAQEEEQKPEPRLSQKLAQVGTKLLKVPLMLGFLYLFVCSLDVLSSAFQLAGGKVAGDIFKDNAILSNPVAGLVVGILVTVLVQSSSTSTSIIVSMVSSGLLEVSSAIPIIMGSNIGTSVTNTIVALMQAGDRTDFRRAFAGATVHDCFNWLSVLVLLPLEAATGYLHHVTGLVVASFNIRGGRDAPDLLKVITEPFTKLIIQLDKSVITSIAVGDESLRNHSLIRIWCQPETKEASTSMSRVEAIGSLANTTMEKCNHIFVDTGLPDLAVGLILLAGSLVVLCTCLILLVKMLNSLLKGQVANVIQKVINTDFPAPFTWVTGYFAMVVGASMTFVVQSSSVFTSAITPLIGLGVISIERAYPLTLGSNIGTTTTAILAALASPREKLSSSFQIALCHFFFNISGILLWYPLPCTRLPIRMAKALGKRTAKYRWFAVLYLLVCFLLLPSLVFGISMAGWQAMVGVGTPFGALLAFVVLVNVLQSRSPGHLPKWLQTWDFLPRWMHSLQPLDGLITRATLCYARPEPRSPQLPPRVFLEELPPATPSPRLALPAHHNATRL
Method: (§1) The brush border membrane vesicles (BBMV) were prepared from renal cortical tissue of adult male Sprague-Dawley rats of an average body weight of about 220 grams. Rats were fed ad libitum standard rat chow containing 0.7% Pi and had free access to distilled water. Rats were sacrificed under anesthesia and dissected renal cortical tissue was used for preparation of BBMV fraction by the divalent cation-precipitation procedure, employed and described in detail in J. Clin. Invest., 67, 1347 (1981) and J. Biol. Chem., 258, 5695 (1983), with the following modifications: (a) MgCl2 instead of CaCl2 was added to crude homogenate (final concentration 10 mM MgCl2) to precipitate membranes other than BBMV; (b) in the final step, BBMV were washed and equilibrated in a medium of pH=7.5, instead of pH=8.5. The enrichment and specific activities of typical BBM enzymes alkaline phosphatase (APases), γ-glutyamyl transferase (γ-GTT), leucineaminopeptidase (LAP) and maltase with use of these modifications were similar as in BBMV fractions prepared in our previous studies. As a final step in the preparative procedure, the BBMV fraction was washed and resuspended in a medium containing 300 mM mannitol and 5 mM Tris-HEPES adjusted to pH=t.5, referred to as "MTH-medium," unless specified otherwise. The analogous BBMV fractions, using the same procedure, were prepared from renal cortices of mongrel dogs, albino mice and New Zealand albino rabbits.
The BBMV uptake of ^32 Pi, D-[^3 H]-glucose, L-[^3 H]-proline and ^22 Na^+ was measured by means of a rapid filtration technique, as described in J. Clin. Invest., 67, 1347 (1981) and Am. J. Physiol., 246, F133-F139 (1984). Also, unless specified otherwise, the medium for the solute uptake assay consisted of following compounds (in final concentrations): 100 mM mannitol, 100 mM NaCl (or 100 mM KC1) and 5 mM Tris-HEPES (pH=7.5) and eitehr 0.1 mM K2 H^32 PO4, or 0.05 mM D-[^3 H]-glucose, or 0.025 mM L-[^3 H]-proline. IN the ^22 Na^+ uptake studies, the assay medium contained 100 mM ^22 NaCl (^22 NaCl about […] per tube), 100 mM mannitol and 5 mM Tris-HEPES (pH 7.5).
In most experiments, the Na^+ -gradient-dependent ^32 Pi uptake in the concentrative "uphill" phase was measured at 20 seconds period. Since Na^+ -independent Pi uptake in this time period was quantitatively minor component (<5%) of the Na^+ -gradient-dependent Pi uptake, it was not routinely subtracted.

[2] = Hydrolysis of phosphono-compounds (release of Pi) in the BBMV assay; conditions: 1 mM; hydrolysis to release more than 5% Pi
Excerpt: Compounds studied in the present experiments which inhibited BBM transport of Pi without hydrolysis to release more than 5% Pi are listed in Table 1.

[3] = system: L-[^3 H]-proline uptake by BBMV; test: Na+-gradient-dependent uptake of L-[3H]-proline by renal BBMV; format: biochemical, rat; conditions: initial uptake 15 sec, FIG. 2
Method: as §1, with “As a final step in the preparative procedure, the BBMV fraction was washed and resuspended in a medium containing 300 mM mannitol and 5 mM Tris-HEPES adjusted to pH=t.5, referred to as "MTH-medium," unless specified otherwise. The analogous BBMV fractions, using the same procedure, were prepared from renal cortices of mongrel dogs, albino mice and New Zealand albino rabbits.” left out
(§2) The BBMV uptake of ^32 Pi, D-[^3 H]-glucose, L-[^3 H]-proline and ^22 Na^+ was measured by means of a rapid filtration technique, as described in J. Clin. Invest., 67, 1347 (1981) and Am. […]

[4] = system: D-[^3 H]-glucose uptake by BBMV; test: Na+-gradient-dependent uptake of D-[3H]-glucose by renal BBMV; format: biochemical, rat; conditions: initial uptake 15 sec, FIG. 2
Method: as §1, with “As a final step in the preparative procedure, the BBMV fraction was washed and resuspended in a medium containing 300 mM mannitol and 5 mM Tris-HEPES adjusted to pH=t.5, referred to as "MTH-medium," unless specified otherwise. The analogous BBMV fractions, using the same procedure, were prepared from renal cortices of mongrel dogs, albino mice and New Zealand albino rabbits.” left out
as §2

[5] = system: diffusional uptake of ^22 Na^+ by BBMV; test: Diffusional uptake of 22Na+ by renal BBMV; format: biochemical, rat; conditions: 1 mM
Method: as §1, with “As a final step in the preparative procedure, the BBMV fraction was washed and resuspended in a medium containing 300 mM mannitol and 5 mM Tris-HEPES adjusted to pH=t.5, referred to as "MTH-medium," unless specified otherwise. The analogous BBMV fractions, using the same procedure, were prepared from renal cortices of mongrel dogs, albino mice and New Zealand albino rabbits.” left out
as §2

CC(O)(P(=O)(O)O)P(=O)(O)O [EHDP, disodium ethane-1-hydroxy-1,1-diphosphonate, reference compound]
inhibition at 1000 µM ([1]; 1 mM, initial uptake at 20 sec, rat kidney cortex BBMV, read-out: Δ% (inhibition as percent decrease from control) of Na+-gradient-dependent 32Pi uptake): -27%
Note: hydrolysis [2]: no

O=C(O)P(=O)(O)O [PFA, phosphonoformic acid]
effect on Na+-gradient-dependent uptake of L-[3H]-proline [3]: no inhibitory effect
effect on Na+-gradient-dependent uptake of D-[3H]-glucose [4]: no inhibitory effect
22Na+ uptake 120 min ([5]; equilibrium, control 166 ± 25): 192 ± 30 nmoles/mg protein
22Na+ uptake 20 sec ([5]; mean ± SEM of 3 experiments, control 42 ± 4): 45 ± 3 nmoles/mg protein

O=P(O)(O)c1ccccc1 [phenylphosphonic acid, reference compound]
effect on Na+-gradient uptake of Pi by renal BBMV (in words) [1]: without effect; also recorded: lacked the inhibitory effect

O=P(O)(O)CO [hydroxymethylphosphonic acid, reference compound]
effect on Na+-gradient uptake of Pi by renal BBMV (in words) [1]: without effect; also recorded: lacked the inhibitory effect

O=P(O)(O)CP(=O)(O)O [MDP, Methylenediphosphonic acid, reference compound]
inhibition at 5000 µM ([1]; 5 mM, initial uptake at 20 sec, rat kidney cortex BBMV, read-out: Δ% (inhibition as percent decrease from control) of Na+-gradient-dependent 32Pi uptake): -21%

NCCP(=O)(O)O [2-aminoethylphosphonic acid, reference compound]
effect on Na+-gradient uptake of Pi by renal BBMV (in words) [1]: lacked the inhibitory effect

COC(=O)P(=O)(OC)OC [trimethylester of TPFA, reference compound]
effect on Na+-gradient uptake of Pi by renal BBMV (in words) [1]: without inhibitory effort

COC(=O)CP(=O)(OC)OC [trimethylester of PAA, reference compound]
effect on Na+-gradient uptake of Pi by renal BBMV (in words) [1]: without inhibitory effort

O=C(O)CCP(=O)(O)O [PPA, phosphonopropionic acid, reference compound]
effect on Na+-gradient uptake of Pi by renal BBMV (in words) [1]: inactive
